Test results from patent US8168199B2, “Dipeptidyl peptidase IV inhibitors for the treatment of schizophrenia and depression” (priority 2000, dated 2012).

System: Male WistarF/Han (WF) rats
Assay: Elevated plus maze (EPM) testing, i.c.v. P32/98
Assay type: in vivo, rat
Method: Animals. […]
Elevated plus maze (EPM) testing. […] The following parameters were calculated: Total numbers of arm entries (TA); entries to closed arms (CA); entries to open arms (OA); percentage frequency of entries to open arms (% OA: OA×100/TA); total trial duration (TT): 300 s; duration of stay in closed arms (closed time; CLT); percentage share of CLT in total arms-stay duration (CLT×100/AT); duration of stay in open arms (open time; OT) and percentage share of OT in total arm-stay duration (% OT: OT×100/AT). In addition to the standard spatiotemporal measurements, “time spent and percentage of time on the central square” were recorded (center time, CT: duration of stay on platform in seconds; percentage share of CT in trial duration, % CT: CT×100/TT). […]

CC[C@H](C)[C@H](N)C(=O)N1CCSC1 [P32/98]
effect of treatment on percentage of time spent on the open arms (analysis of variance) (i.c.v. aCSF, 0.05, 5, 500 nmol): significant effect
percentage of time spent on the open arms of the EPM (i.c.v. low dose 50 pmol, 60 min before test, vs aCSF): increased
